The term IC50 denotes the point on the concentration scale where inhibition reaches its midpoint.

Our source for the IC50 values is patent US8778941B2, “TRPM8 antagonists and their use in treatments” (AMGEN Inc., priority 2011, dated 2014).

T1 sequence (Q7Z2W7 whole entry): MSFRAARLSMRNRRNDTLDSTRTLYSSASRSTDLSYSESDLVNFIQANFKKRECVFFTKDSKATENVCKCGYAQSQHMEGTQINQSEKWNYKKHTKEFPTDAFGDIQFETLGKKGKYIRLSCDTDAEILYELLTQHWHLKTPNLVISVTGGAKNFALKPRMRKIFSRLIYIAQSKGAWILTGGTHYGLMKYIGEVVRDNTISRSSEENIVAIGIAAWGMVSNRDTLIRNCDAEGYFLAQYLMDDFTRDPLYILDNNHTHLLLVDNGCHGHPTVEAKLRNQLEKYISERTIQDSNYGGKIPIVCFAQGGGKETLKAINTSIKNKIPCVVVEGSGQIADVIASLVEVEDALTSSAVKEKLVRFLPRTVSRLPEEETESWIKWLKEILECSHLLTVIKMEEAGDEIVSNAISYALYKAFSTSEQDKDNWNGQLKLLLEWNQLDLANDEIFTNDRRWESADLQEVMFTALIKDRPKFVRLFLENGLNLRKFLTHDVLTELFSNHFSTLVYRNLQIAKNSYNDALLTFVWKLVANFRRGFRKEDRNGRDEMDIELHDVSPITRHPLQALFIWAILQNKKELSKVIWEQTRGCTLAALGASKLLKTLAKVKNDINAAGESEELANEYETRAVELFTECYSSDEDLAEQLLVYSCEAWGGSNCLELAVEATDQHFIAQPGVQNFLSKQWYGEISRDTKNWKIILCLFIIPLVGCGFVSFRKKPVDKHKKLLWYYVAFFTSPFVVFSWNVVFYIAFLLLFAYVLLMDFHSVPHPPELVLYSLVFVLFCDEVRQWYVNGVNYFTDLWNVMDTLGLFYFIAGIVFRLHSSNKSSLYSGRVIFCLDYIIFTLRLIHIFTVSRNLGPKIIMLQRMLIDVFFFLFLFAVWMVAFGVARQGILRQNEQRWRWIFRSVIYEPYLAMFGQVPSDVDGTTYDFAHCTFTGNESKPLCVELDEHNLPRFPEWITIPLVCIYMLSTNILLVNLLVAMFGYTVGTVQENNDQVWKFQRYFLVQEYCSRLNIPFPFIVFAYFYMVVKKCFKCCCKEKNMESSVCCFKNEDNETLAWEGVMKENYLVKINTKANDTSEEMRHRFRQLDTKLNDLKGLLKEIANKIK

This assay has as its target T1, human TRPM8 (Homo sapiens, UniProt Q7Z2W7).
T1 construct: expressed in transfected cells; host or cells: Chinese hamster ovary (CHO) cells, T-REx tetracycline-inducible expression system (Invitrogen), co-transfected with pcDNA3.1 jellyfish aequorin
In words: Luminescence readout assay for measuring intracellular calcium (aequorin), hTRPM8 antagonism. It is filed as cell-based. The note with it: CHO cell line expressing human TRPM8 and aequorin; activation by icilin, L-menthol or cold buffer (table does not say which). On the technique in general: Calcium flux is commonly read through the fluorescence of an indicator in the cells.
Turning to `CCc1cccc(C(C)C)c1NC(=O)N[C@@H](c1ccc(C(F)(F)F)cc1)c1ncccc1C(F)(F)F` [Example 91, (S)-1-(2-ethyl-6-isopropylphenyl)-3-((4-(trifluoro-methyl)-phenyl)(3-(trifluoro-methyl)-pyridin-2-yl)-methyl)urea (2,2,2-trifluoro-acetate)], the IC50 is 670 nM.

In the case of `Cc1cccc(C(C)C)c1NC(=O)N[C@@H](c1ccc(C(F)(F)F)cc1)c1ncccc1C(F)(F)F` [Example 92, (S)-1-(2-isopropyl-6-methylphenyl)-3-((4-(trifluoro-methyl)-phenyl)(3-(trifluoro-methyl)-pyridin-2-yl)-methyl)urea (2,2,2-trifluoro-acetate)], the IC50 stood at 713 nM. As for `COc1cc(CCNC(=O)N[C@@H](c2ccc(C(F)(F)F)cc2)c2ncccc2C(F)(F)F)cc(OC)c1` [Example 93, (S)-1-(3,5-dimethoxy-phenethyl)-3-((4-(trifluoro-methyl)-phenyl)(3-(trifluoro-methyl)-pyridin-2-yl)-methyl)urea (2,2,2-trifluoro-acetate)], the IC50 was 1440 nM. For `CCOC(=O)[C@H](C)NC(=O)N[C@@H](c1ccc(C(F)(F)F)cc1)c1ncccc1C(F)(F)F` [Example 94, (S)-ethyl 2-(3-((S)-(4-(trifluoro-methyl)-phenyl)(3-(trifluoro-methyl)-pyridin-2-yl)-ureido)-propanoate (2,2,2-trifluoro-acetate)], the IC50 amounted to 1710 nM.

As to `COc1ccc(CCNC(=O)N[C@@H](c2ccc(C(F)(F)F)cc2)c2ncccc2C(F)(F)F)cc1OC` [Example 95, (S)-1-(3,4-dimethoxy-phenethyl)-3-((4-(trifluoro-methyl)-phenyl)(3-(trifluoro-methyl)-pyridin-2-yl)-methyyl)urea (2,2,2-trifluoro-acetate)], the IC50 amounted to 1920 nM. For `COC(=O)[C@@H](NC(=O)N[C@@H](c1ccc(C(F)(F)F)cc1)c1ncccc1C(F)(F)F)C(C)C` [Example 96, (S)-methyl 3-(methyl-2-(3-((S)-(4-(trifluoro-methyl)-phenyl)(3-(trifluoro-methyl)-pyridin-2-yl)-methyl)-ureido)-butanoate (2,2,2-trifluoro-acetate)], the IC50 was determined as 884 nM. Take `N#Cc1cccc(NC(=O)N[C@@H](c2ccc(C(F)(F)F)cc2)c2ncccc2C(F)(F)F)c1` [Example 97, (S)-1-(3-cyanophenyl)-3-((4-(trifluoro-methyl)-phenyl)(3-(trifluoro-methyl)-pyridin-2-yl)-methyl)urea (2,2,2-trifluoro-acetate)]: the IC50 is 80 nM. As for `CCOC(=O)C(NC(=O)N[C@@H](c1ccc(C(F)(F)F)cc1)c1ncccc1C(F)(F)F)C(C)C` (stereo partly drawn) [Example 98, ethyl 3-methyl-2-(3-((S)-(4-(trifluoro-methyl)-phenyl)(3-(trifluoro-methyl)-pyridin-2-yl)-methyl)-ureido)-butanoate (2,2,2-trifluoro-acetate)], the IC50 was 2220 nM.

As to `CC[C@H](C)C(NC(=O)N[C@@H](c1ccc(C(F)(F)F)cc1)c1ncccc1C(F)(F)F)C(=O)OC` (stereo partly drawn) [Example 99, (3S)-methyl 3-methyl-2-(3-((S)-(4-(trifluoro-methyl)-phenyl)(3-(trifluoro-methyl)-pyridin-2-yl)-methyl)-ureido)-pentanoate (2,2,2-trifluoro-acetate)], the IC50 amounted to 712 nM. For the molecule `O=C(Nc1cccc([N+](=O)[O-])c1)N[C@@H](c1ccc(C(F)(F)F)cc1)c1ncccc1C(F)(F)F` [Example 100, (S)-1-(3-nitrophenyl)-3-((4-(trifluoro-methyl)-phenyl)(3-(trifluoro-methyl)-pyridin-2-yl)-methyl)urea (2,2,2-trifluoro-acetate)], the half-maximal inhibitory concentration (IC50) turned out to be 142 nM. In the case of `CC(NC(=O)N[C@@H](c1ccc(C(F)(F)F)cc1)c1ncccc1C(F)(F)F)c1ccc(Br)cc1` (stereo partly drawn) [Example 101, 1-(1-(4-bromophenyl)-ethyl)-3-((S)-(4-(trifluoro-methyl)-phenyl)(3-(trifluoro-methyl)-pyridin-2-yl)-methyl)urea (2,2,2-trifluoro-acetate)], the IC50 stood at 633 nM.

With `COC(=O)c1cccc(NC(=O)N[C@@H](c2ccc(C(F)(F)F)cc2)c2ncccc2C(F)(F)F)c1` [Example 102, (S)-methyl 3-(3-((4-(trifluoro-methyl)-phenyl)(3-(trifluoro-methyl)-pyridin-2-yl)-methyl)-ureido)-benzoate (2,2,2-trifluoro-acetate)], the half-maximal inhibitory concentration (IC50) is 262 nM.

Take `COC(=O)c1cc(NC(=O)N[C@@H](c2ccc(C(F)(F)F)cc2)c2ncccc2C(F)(F)F)cc(C(=O)OC)c1` [Example 103, (S)-dimethyl 5-(3-((4-(trifluoro-methyl)-phenyl)(3-(trifluoro-methyl)-pyridin-2-yl)-methyl)-ureido)-isophthalate (2,2,2-trifluoro-acetate)]: the IC50 is 527 nM. As to `CCCCOC(=O)CNC(=O)N[C@@H](c1ccc(C(F)(F)F)cc1)c1ncccc1C(F)(F)F` [Example 104, (S)-butyl 2-(3-((4-(trifluoro-methyl)-phenyl)(3-(trifluoro-methyl)-pyridin-2-yl)-methyl)-ureido)acetate (2,2,2-trifluoro-acetate)], the half-maximal inhibitory concentration (IC50) was 604 nM.

As for `C=C(C)c1cccc(C(C)(C)NC(=O)N[C@@H](c2ccc(C(F)(F)F)cc2)c2ncccc2C(F)(F)F)c1` [Example 105, (S)-1-(2-(3-(prop-1-en-2-yl)phenyl)-propan-2-yl)-3-((4-(trifluoro-methyl)-phenyl)(3-(trifluoro-methyl)-pyridin-2-yl)-methyl)urea (2,2,2-trifluoro-acetate)], the concentration for half-maximal inhibition (IC50) amounted to 545 nM. In the case of `Cc1cc(C)cc(NC(=O)N[C@@H](c2ccc(C(F)(F)F)cc2)c2ncccc2C(F)(F)F)c1` [Example 106, (S)-1-(3,5-dimethylphenyl)-3-((4-(trifluoro-methyl)-phenyl)(3-(trifluoro-methyl)-pyridin-2-yl)-methyl)urea (2,2,2-trifluoro-acetate)], the IC50 was determined as 494 nM. On to `C[C@H](NC(=O)N[C@@H](c1ccc(C(F)(F)F)cc1)c1ncccc1C(F)(F)F)c1ccccc1` [Example 107, 1-((S)-1-phenylethyl)-3-((S)-(4-(trifluoro-methyl)-phenyl)(3-(trifluoro-methyl)-pyridin-2-yl)-methyl)urea (2,2,2-trifluoro-acetate)], for which the IC50 was found to be 123 nM. As to `Cc1ccc(C)c(NC(=O)N[C@@H](c2ccc(C(F)(F)F)cc2)c2ncccc2C(F)(F)F)c1` [Example 108], the IC50 amounted to 829 nM. As to `O=C(NCc1ccccc1)N[C@@H](c1ccc(C(F)(F)F)cc1)c1ncccc1C(F)(F)F` [Example 109, (S)-1-benzyl-3-((4-(trifluoro-methyl)-phenyl)(3-(trifluoro-methyl)-pyridin-2-yl)-methyl)urea (2,2,2-trifluoro-acetate)], the IC50 is 110 nM.

`COc1ccc(OC)c(CCNC(=O)N[C@@H](c2ccc(C(F)(F)F)cc2)c2ncccc2C(F)(F)F)c1` [Example 110, (S)-1-(2,5-dimethoxy-phenethyl)-3-((4-(trifluoro-methyl)-phenyl)(3-(trifluoro-methyl)-pyridin-2-yl)-methyl)urea (2,2,2-trifluoro-acetate)]: the IC50 amounted to 190 nM.
